Assay results as given in article PMC12589998, “Development and validation of a UHPLC-QqQ-MS/MS method for simultaneous determination of fifteen major components from Oroxyli seed extract in rat plasma and its application in the pharmacokinetic study” (Frontiers in Pharmacology, 2025).
Where two headings read alike, the source gives them in different places.

Key:
[1] = Stability of the analytes in rat plasma samples under storage conditions; format: physicochemical; details: n = 6
Method: The bioanalytical method validation was evaluated for specificity, linearity, sensitivity, precision and accuracy, recovery, matrix effect, and stability to ensure compliance with the U.S. Food and Drug Administration (FDA) guidance on precise quantitative analysis ([Center for Drug Evaluation and Research of the U.S., 2018]). The assessment of specificity was conducted by comparing the chromatograms obtained from blank plasma, blank plasma spiked with the target components, and samples gathered following the oral administration of OS extract. Calibration curves were constructed by plotting the ratio for the peak area of the analyte to IS versus the concentration, with 1/x^2 serving as the weighting factor. The lower limit of quantification (LLOQ) was defined as the concentration at which a signal to noise ratio of […] 10 was achievable. The evaluation of precision and accuracy involved the analysis of six QC samples, both within a single day and over 3 consecutive days. Accuracy was expressed as the relative error (RE), whereas precision was gauged via relative standard deviation (RSD). Extraction recovery was ascertained by juxtaposing the responses of analytes in extracted samples against those in samples that were spiked post-extraction. The matrix effect was scrutinized by determining the ratio of the responses of the analytes in post-extraction spiked samples to those in the mixed standard solution. The stability of the analytes in plasma samples was explored under diverse conditions: encompassing a 12-h period in an autosampler, a 4-h interval at room temperature, three cycles of freezing–thawing, and a 7-day duration at −80 °C.
The retention times of the analyte peaks were consistent with those in the spiked samples. […] The LLOQs for chrysin, chrysin-7-O-β-D-glucuronide, hispidulin, wogonoside, quercetin, quercetin-7-O-β-D-glucoside, baicalin, baicalein, acacetin, oroxin A, oroxin B, oroxylin A, oroxylin A-7-O-β-D-glucuronide, apigenin, and scutellarein were 1.0, 2.0, 1.0, 0.3, 1.0, 0.1, 9.0, 6.0, 0.3, 6.0, 4.0, 1.0, 2.0, 0.5, and 0.3 ng/mL, respectively. In Supplementary Table S2, the RE for accuracy is between −13.77% and 12.55%, and the RSD for precision is below 14.55% (both intra- and inter-day). […] The matrix effect varied from 60.15% to 115.53%, with RSD values below 10.54%. In Supplementary Table S4, the RSD values for stability of the analytes are found to be lower than 13.98%, meaning that these components were stable under the following conditions: encompassing a 12-h period in an autosampler, a 4-h interval at room temperature, three cycles of freezing and thawing, and a 7-day duration at −80 °C.

[2] = Pharmacokinetic study in rats after oral administration of OS extract (UHPLC-QqQ-MS/MS of plasma); format: in vivo, rat; details: for concentration at 0.5 h / AUC(0-inf) / AUC(0-t) / Cmax / Tmax / half-life: male, SD; for Plasma levels: rat plasma after oral OS extract
Method: The UHPLC-QqQ-MS/MS system consisted of a 1290 UHPLC and a 6470 mass spectrometer (Agilent Technologies). Chromatographic separation was realized on utilizing an ACQUITY UPLC BEH C18 column (2.1 × 100 mm, 1.7 μm) maintained at 35 °C. The mobile phase consisting of 0.1% formic acid in water (A) and acetonitrile (B) was utilized with the elution program set at 0 min–1 min, 5% B–30% B; 1 min–4 min, 30% B– 50% B; 4 min–8 min, and 50% B–90% B. The injection volume was 5 μL, and the flow rate was 0.3 mL/min. The mass spectrometry parameters in the negative ion mode, gas temperature, flow rate, and nebulizer pressure were 300 °C, 7 L/min, and 35 psi, respectively. The mass spectra properties of the 15 analytes and the IS are illustrated in Table 1.
To 100 μL of the plasma sample, 20 μL of methanol, 20 μL of IS solution (methylparaben, 1 μg/mL), and 5 μL of formic acid were added and vortexed for a duration of 2 min. Subsequently, the mixture underwent extraction with 800 μL of acetonitrile for 3 min. Following 10 min of centrifugation at 12,000 g, the supernatant was collected and evaporated to dryness under N2 to obtain the residue. Finally, the residue was reconstituted in 50% methanol (100 μL) and utilized for analysis.
Before initiating the study, six male SD rats underwent a 12-h fasting period, during which they were granted unrestricted access to water. Then, the rats were administered an oral dose of 3 g/kg of the OS extract, which had been dissolved in 0.5% CMC-Na aqueous solution. Blood samples, approximately 200 μL each, were collected at various time points: before administration and at 0.03, 0.08, 0.17, 0.25, 0.5, 0.75, 1, 2, 4, 6, 8, 10, 12, 24, 36, and 48 h post-administration. Following 10 min of centrifugation at 6,000 g, the resultant samples were stored at −80 °C.
The developed method was effectively applied to study the pharmacokinetics in rats following oral administration of the OS extract. […] This was likely due to their low concentrations in the OS extract. Ultimately, nine components (chrysin, chrysin-7-O-β-D-glucuronide, baicalin, baicalein, oroxin A, oroxin B, oroxylin A, oroxylin A-7-O-β-D-glucuronide, and scutellarein) were successfully fitted with pharmacokinetic parameters. The average plasma concentration–time profiles of these substances are depicted in Figure 3. […] All data were presented as the mean ± standard deviation (Mean ± SD).

[3] = spiked concentration 1600 ng/mL
[4] = 3 g/kg, rat plasma collected 0.5 h after oral administration of the OS extract, read-out: Concentration printed in MRM chromatogram of plasma sample (Figure 2C)

| SMILES | Measured, -80°C for 7 days ([1]; spiked concentration 10 ng/mL) | Measured, Autosampler for 12 h ([1]; spiked concentration 10 ng/mL) | Measured, Room temperature for 4 h ([1]; spiked concentration 10 ng/mL) | Measured, Three freeze-thaw cycles ([1]; spiked concentration 10 ng/mL) | Measured, -80°C for 7 days ([1]; spiked concentration 100 ng/mL) | Measured, Autosampler for 12 h ([1]; spiked concentration 100 ng/mL) | Measured, -80°C for 7 days ([1]; spiked concentration 2 ng/mL) | Measured, Autosampler for 12 h ([1]; spiked concentration 2 ng/mL) | Measured, Room temperature for 4 h ([1]; spiked concentration 2 ng/mL) | Measured, Three freeze-thaw cycles ([1]; spiked concentration 2 ng/mL) | Measured, -80°C for 7 days ([1]; spiked concentration 20 ng/mL) | Measured, Autosampler for 12 h ([1]; spiked concentration 20 ng/mL) | Measured, Room temperature for 4 h ([1]; spiked concentration 20 ng/mL) | Measured, Three freeze-thaw cycles ([1]; spiked concentration 20 ng/mL) | Measured, -80°C for 7 days ([1]; spiked concentration 320 ng/mL) | Measured, Autosampler for 12 h ([1]; spiked concentration 320 ng/mL) | Measured, Room temperature for 4 h ([1]; spiked concentration 320 ng/mL) | Measured, Three freeze-thaw cycles ([1]; spiked concentration 320 ng/mL) | concentration at 0.5 h [2, 4] | Plasma levels [2] | further results |
| --- | --- | --- | --- | --- | --- | --- | --- | --- | --- | --- | --- | --- | --- | --- | --- | --- | --- | --- | --- | --- | --- |
| O=c1cc(-c2ccccc2)oc2cc(O)cc(O)c12 [Chrysin, chrysin] | 9.25 ± 0.47 ng/mL | 11.26 ± 1.24 ng/mL | 10.87 ± 0.54 ng/mL | 9.15 ± 0.40 ng/mL | 91.73 ± 5.32 ng/mL | 101.85 ± 8.18 ng/mL |  |  |  |  |  |  |  |  |  |  |  |  |  |  | Measured, Room temperature for 4 h ([1]; spiked concentration 100 ng/mL): 99.57 ± 5.36 ng/mL; Measured, Three freeze-thaw cycles ([1]; spiked concentration 100 ng/mL): 90.99 ± 3.81 ng/mL; Measured, -80°C for 7 days [1, 3]: 1539.20 ± 116.03 ng/mL; Measured, Autosampler for 12 h [1, 3]: 1687.80 ± 77.00 ng/mL; Measured, Room temperature for 4 h [1, 3]: 1601.59 ± 94.45 ng/mL; Measured, Three freeze-thaw cycles [1, 3]: 1525.21 ± 82.94 ng/mL; concentration at 0.5 h ([2]; rat, in vivo, po): 73 ng/mL; AUC(0-inf) ([2]; rat, in vivo, po, 3 g/kg): 589 ± 303 ng·h/mL; AUC(0-t) ([2]; rat, in vivo, po, 3 g/kg): 550 ± 294 ng·h/mL; Cmax ([2]; rat, in vivo, po, 3 g/kg): 519 ± 197 ng/mL; Tmax ([2]; rat, in vivo, po, 3 g/kg): 0.06 ± 0.03 h; half-life ([2]; rat, in vivo, po, 3 g/kg): 4.25 ± 2.01 h |
| O=c1c(O)c(-c2ccc(O)c(O)c2)oc2cc(O[C@@H]3O[C@H](CO)[C@@H](O)[C@H](O)[C@H]3O)cc(O)c12 [Quercetin-7-O-β-D-glucoside, quercetin-7-O-β-D-glucoside] |  |  |  |  |  |  | 1.96 ± 0.23 ng/mL | 2.10 ± 0.15 ng/mL | 1.98 ± 0.24 ng/mL | 2.03 ± 0.10 ng/mL | 19.58 ± 0.68 ng/mL | 19.79 ± 2.27 ng/mL | 20.28 ± 1.69 ng/mL | 17.78 ± 1.17 ng/mL | 296.81 ± 20.76 ng/mL | 320.27 ± 20.06 ng/mL | 315.81 ± 25.77 ng/mL | 326.98 ± 27.26 ng/mL | 8 ng/mL | too weak to obtain comprehensive pharmacokinetic curves |  |
| COc1c(O[C@@H]2O[C@H](C(=O)O)[C@@H](O)[C@H](O)[C@H]2O)cc(O)c2c(=O)cc(-c3ccccc3)oc12 [Wogonoside, wogonoside] |  |  |  |  |  |  | 1.78 ± 0.17 ng/mL | 2.07 ± 0.26 ng/mL | 1.82 ± 0.14 ng/mL | 1.86 ± 0.09 ng/mL | 22.33 ± 0.89 ng/mL | 22.77 ± 1.13 ng/mL | 19.87 ± 0.76 ng/mL | 18.01 ± 1.31 ng/mL | 287.53 ± 32.71 ng/mL | 307.85 ± 37.80 ng/mL | 327.84 ± 23.82 ng/mL | 310.87 ± 20.44 ng/mL | 11 ng/mL | too weak to obtain comprehensive pharmacokinetic curves |  |
| COc1c(O)cc2oc(-c3ccccc3)cc(=O)c2c1O [Oroxylin A, oroxylin A] | 10.45 ± 0.29 ng/mL | 10.51 ± 1.15 ng/mL | 10.16 ± 0.90 ng/mL | 10.69 ± 0.70 ng/mL | 92.00 ± 7.39 ng/mL | 90.43 ± 9.04 ng/mL |  |  |  |  |  |  |  |  |  |  |  |  |  |  | Measured, Room temperature for 4 h ([1]; spiked concentration 100 ng/mL): 92.23 ± 5.62 ng/mL; Measured, Three freeze-thaw cycles ([1]; spiked concentration 100 ng/mL): 88.86 ± 4.67 ng/mL; Measured, -80°C for 7 days [1, 3]: 1720.89 ± 130.14 ng/mL; Measured, Autosampler for 12 h [1, 3]: 1797.17 ± 87.55 ng/mL; Measured, Room temperature for 4 h [1, 3]: 1790.22 ± 78.72 ng/mL; Measured, Three freeze-thaw cycles [1, 3]: 1733.57 ± 149.41 ng/mL; concentration at 0.5 h ([2]; rat, in vivo, po): 165 ng/mL; AUC(0-inf) ([2]; rat, in vivo, po, 3 g/kg): 3010 ng·h/mL; AUC(0-t) ([2]; rat, in vivo, po, 3 g/kg): 2840 ng·h/mL; Cmax ([2]; rat, in vivo, po, 3 g/kg): 512 ± 179 ng/mL; Tmax ([2]; rat, in vivo, po, 3 g/kg): 0.25 ± 0.00 h; half-life ([2]; rat, in vivo, po, 3 g/kg): 7.7 ± 0.97 h |
| COc1ccc(-c2cc(=O)c3c(O)cc(O)cc3o2)cc1 [Acacetin, acacetin] |  |  |  |  |  |  | 1.78 ± 0.11 ng/mL | 1.78 ± 0.15 ng/mL | 2.20 ± 0.04 ng/mL | 1.81 ± 0.06 ng/mL | 17.78 ± 0.87 ng/mL | 22.01 ± 1.07 ng/mL | 21.25 ± 1.13 ng/mL | 17.60 ± 1.24 ng/mL | 284.83 ± 15.85 ng/mL | 317.16 ± 38.69 ng/mL | 313.68 ± 7.94 ng/mL | 282.90 ± 15.75 ng/mL | 8 ng/mL | too weak to obtain comprehensive pharmacokinetic curves |  |
